Test results published in the supplement of paper PMC4862054.

Legend:
MFM-223 [1] = experiment: normalised viability (% of control), CellTiter-Blue; higher = more viable cells (about 100 = DMSO control); conditions: 50 nM; incubation time: 72 h
Experimental: (§1)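 DSRT, CellTiter-Blue viability, 72 h incubation. Signal is normalised to DMSO and benzethonium chloride controls. Value is the normalised response at dose 3.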

BT-549 [2] = experiment: as above; conditions: 50 nM; incubation time: 72 h
Experimental: as §1

MDA-MB-231 [3] = experiment: as above; conditions: 50 nM; incubation time: 72 h
Experimental: as §1

HCC1143 [4] = experiment: as above; conditions: 50 nM; incubation time: 72 h
Experimental: as §1

HDQ-P1 [5] = experiment: as above; conditions: 5 nM; incubation time: 72 h
Experimental: as §1

HCC1599 [6] = experiment: as above; conditions: 50 nM; incubation time: 72 h
Experimental: as §1

CAL-148 [7] = experiment: as above; conditions: 5 nM; incubation time: 72 h
Experimental: as §1

DU-4475 [8] = experiment: as above; conditions: 5 nM; incubation time: 72 h
Experimental: as §1

Hs578T [9] = experiment: as above; conditions: 50 nM; incubation time: 72 h
Experimental: as §1

CAL-85-1 [10] = experiment: as above; conditions: 5 nM; incubation time: 72 h
Experimental: as §1

CAL-120 [11] = experiment: as above; conditions: 50 nM; incubation time: 72 h
Experimental: as §1

MDA-MB-468 [12] = experiment: as above; conditions: 50 nM; incubation time: 72 h
Experimental: as §1

MDA-MB-453 [13] = experiment: as above; conditions: 5 nM; incubation time: 72 h
Experimental: as §1

HCC1937 [14] = experiment: as above; conditions: 50 nM; incubation time: 72 h
Experimental: as §1

SK-BR-3 [15] = experiment: as above; conditions: 50 nM; incubation time: 72 h
Experimental: as §1

BT-474 [16] = experiment: as above; conditions: 50 nM; incubation time: 72 h
Experimental: as §1

MDA-MB-436 [17] = experiment: as above; conditions: 50 nM; incubation time: 72 h
Experimental: as §1

CAL-51 [18] = experiment: as above; conditions: 5 nM; incubation time: 72 h
Experimental: as §1

MFM-223 [19] = experiment: normalised viability (% of control), CellTiter-Blue; higher = more viable cells (about 100 = DMSO control); conditions: incubation time: 72 h
Outline: (§2)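 Vehicle (100) and a positive kill control (0) anchored the normalisation of each plate, and Z'-factor was used for quality control. Breast cancer cell lines in 20 µl suspension were incubated 72 h over compound in 5 µl medium in 384-well plates, followed by CellTiter-Blue at 560/590 nm. The value is normalised viability at a single listed concentration of the series.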

BT-549 [20] = experiment: as above; conditions: incubation time: 72 h
Outline: as §2

MDA-MB-231 [21] = experiment: as above; conditions: incubation time: 72 h
Outline: as §2

HCC1143 [22] = experiment: as above; conditions: incubation time: 72 h
Outline: as §2

HDQ-P1 [23] = experiment: as above; conditions: incubation time: 72 h
Outline: as §2

HCC1599 [24] = experiment: as above; conditions: incubation time: 72 h
Outline: as §2

CAL-148 [25] = experiment: as above; conditions: incubation time: 72 h
Outline: as §2

DU-4475 [26] = experiment: as above; conditions: incubation time: 72 h
Outline: as §2

Hs578T [27] = experiment: as above; conditions: incubation time: 72 h
Outline: as §2

CAL-85-1 [28] = experiment: as above; conditions: incubation time: 72 h
Outline: as §2

CAL-120 [29] = experiment: as above; conditions: incubation time: 72 h
Outline: as §2

MDA-MB-468 [30] = experiment: as above; conditions: incubation time: 72 h
Outline: as §2

MDA-MB-453 [31] = experiment: as above; conditions: incubation time: 72 h
Outline: as §2

HCC1937 [32] = experiment: as above; conditions: incubation time: 72 h
Outline: as §2

SK-BR-3 [33] = experiment: as above; conditions: incubation time: 72 h
Outline: as §2

BT-474 [34] = experiment: as above; conditions: incubation time: 72 h
Outline: as §2

MDA-MB-436 [35] = experiment: as above; conditions: incubation time: 72 h
Outline: as §2

CAL-51 [36] = experiment: as above; conditions: incubation time: 72 h
Outline: as §2

MFM-223 [37] = experiment: normalised viability (% of control), CellTiter-Blue; higher = more viable cells (100 = DMSO, 0 = benzethonium chloride kill control); conditions: incubation time: 72 h
Experimental: (§3)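 DSRT, CellTiter-Blue viability, 72 h incubation. Signal is normalised to DMSO and benzethonium chloride controls. Value is the normalised response at dose 1.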

BT-549 [38] = experiment: as above; conditions: incubation time: 72 h
Experimental: as §3

MDA-MB-231 [39] = experiment: as above; conditions: incubation time: 72 h
Experimental: as §3

HCC1143 [40] = experiment: as above; conditions: incubation time: 72 h
Experimental: as §3

HDQ-P1 [41] = experiment: as above; conditions: incubation time: 72 h
Experimental: as §3

HCC1599 [42] = experiment: as above; conditions: incubation time: 72 h
Experimental: as §3

CAL-148 [43] = experiment: as above; conditions: incubation time: 72 h
Experimental: as §3

DU-4475 [44] = experiment: as above; conditions: incubation time: 72 h
Experimental: as §3

Hs578T [45] = experiment: as above; conditions: incubation time: 72 h
Experimental: as §3

CAL-85-1 [46] = experiment: as above; conditions: incubation time: 72 h
Experimental: as §3

CAL-120 [47] = experiment: as above; conditions: incubation time: 72 h
Experimental: as §3

MDA-MB-468 [48] = experiment: as above; conditions: incubation time: 72 h
Experimental: as §3

MDA-MB-453 [49] = experiment: as above; conditions: incubation time: 72 h
Experimental: as §3

HCC1937 [50] = experiment: as above; conditions: incubation time: 72 h
Experimental: as §3

SK-BR-3 [51] = experiment: as above; conditions: incubation time: 72 h
Experimental: as §3

BT-474 [52] = experiment: as above; conditions: incubation time: 72 h
Experimental: as §3

MDA-MB-436 [53] = experiment: as above; conditions: incubation time: 72 h
Experimental: as §3

CAL-51 [54] = experiment: as above; conditions: incubation time: 72 h
Experimental: as §3

CC[C@@]1(O)C(=O)OCc2c1cc1n(c2=O)Cc2cc3ccccc3nc2-1 [Camptothecin]
normalised viability (MFM-223 [1]): 93.8%
normalised viability (BT-549 [2]): 67.3%
normalised viability (MDA-MB-231 [3]): 78.9%
normalised viability (HCC1143 [4]): 50.9%
normalised viability (HDQ-P1 [5]): 99.4%
normalised viability (HCC1599 [6]): 90.2%
normalised viability (CAL-148 [7]): 70.3%
normalised viability (DU-4475 [8]): 82.2%
normalised viability (Hs578T [9]): 81.8%
normalised viability (CAL-85-1 [10]): 93.7%
normalised viability (CAL-120 [11]): 65.5%
normalised viability (MDA-MB-468 [12]): 46.8%
normalised viability (MDA-MB-453 [13]): 103%
normalised viability (HCC1937 [14]): 45.8%
normalised viability (SK-BR-3 [15]): 49.7%
normalised viability (BT-474 [16]): 90.8%
normalised viability (MDA-MB-436 [17]): 87.9%
normalised viability (CAL-51 [18]): 99%
normalised viability (MFM-223 [19]; 5 nM): 108%
normalised viability (MFM-223 [19]; 500 nM): 79.8%
normalised viability (MFM-223 [19]; 5000 nM): 32.3%
normalised viability (BT-549 [20]; 5 nM): 82.1%
normalised viability (BT-549 [20]; 500 nM): 39.3%
normalised viability (BT-549 [20]; 5000 nM): 20.7%
normalised viability (MDA-MB-231 [21]; 5 nM): 98%
normalised viability (MDA-MB-231 [21]; 500 nM): 51.8%
normalised viability (MDA-MB-231 [21]; 5000 nM): 22.6%
normalised viability (HCC1143 [22]; 5 nM): 78.3%
normalised viability (HCC1143 [22]; 500 nM): 33.5%
normalised viability (HCC1143 [22]; 5000 nM): 22.9%
normalised viability (HDQ-P1 [23]; 1.5 nM): 90.7%
normalised viability (HDQ-P1 [23]; 15 nM): 83.2%
normalised viability (HDQ-P1 [23]; 50 nM): 65.9%
normalised viability (HCC1599 [24]; 5 nM): 108%
normalised viability (HCC1599 [24]; 500 nM): 60.1%
normalised viability (HCC1599 [24]; 5000 nM): 29.5%
normalised viability (CAL-148 [25]; 1.5 nM): 102%
normalised viability (CAL-148 [25]; 15 nM): 47.9%
normalised viability (CAL-148 [25]; 50 nM): 30.9%
normalised viability (DU-4475 [26]; 1.5 nM): 117%
normalised viability (DU-4475 [26]; 15 nM): 60.2%
normalised viability (DU-4475 [26]; 50 nM): 44.7%
normalised viability (Hs578T [27]; 5 nM): 112%
normalised viability (Hs578T [27]; 500 nM): 59.6%
normalised viability (Hs578T [27]; 5000 nM): 11.5%
normalised viability (CAL-85-1 [28]; 1.5 nM): 98%
normalised viability (CAL-85-1 [28]; 15 nM): 87.3%
normalised viability (CAL-85-1 [28]; 50 nM): 74.8%
normalised viability (CAL-120 [29]; 5 nM): 81.5%
normalised viability (CAL-120 [29]; 500 nM): 22.6%
normalised viability (CAL-120 [29]; 5000 nM): 10.3%
normalised viability (MDA-MB-468 [30]; 5 nM): 93%
normalised viability (MDA-MB-468 [30]; 500 nM): 12.1%
normalised viability (MDA-MB-468 [30]; 5000 nM): 6.62%
normalised viability (MDA-MB-453 [31]; 1.5 nM): 114%
normalised viability (MDA-MB-453 [31]; 15 nM): 105%
normalised viability (MDA-MB-453 [31]; 50 nM): 77.4%
normalised viability (HCC1937 [32]; 5 nM): 92.6%
normalised viability (HCC1937 [32]; 500 nM): 29.6%
normalised viability (HCC1937 [32]; 5000 nM): 25.5%
normalised viability (SK-BR-3 [33]; 5 nM): 100%
normalised viability (SK-BR-3 [33]; 500 nM): 20.6%
normalised viability (SK-BR-3 [33]; 5000 nM): 8%
normalised viability (BT-474 [34]; 5 nM): 101%
normalised viability (BT-474 [34]; 500 nM): 69.9%
normalised viability (BT-474 [34]; 5000 nM): 60.3%
normalised viability (MDA-MB-436 [35]; 5 nM): 97%
normalised viability (MDA-MB-436 [35]; 500 nM): 31.2%
normalised viability (MDA-MB-436 [35]; 5000 nM): 10.3%
normalised viability (CAL-51 [36]; 1.5 nM): 103%
normalised viability (CAL-51 [36]; 15 nM): 57%
normalised viability (CAL-51 [36]; 50 nM): 31.1%

O=P(O)(NCCCl)NCCCl [Ifosfamide mustard] (1 nM)
normalised viability (MFM-223 [37]): 94.9%
normalised viability (BT-549 [38]): 102%
normalised viability (MDA-MB-231 [39]): 101%
normalised viability (HCC1143 [40]): 97.4%
normalised viability (HDQ-P1 [41]): 88.6%
normalised viability (HCC1599 [42]): 109%
normalised viability (CAL-148 [43]): 111%
normalised viability (DU-4475 [44]): 106%
normalised viability (Hs578T [45]): 116%
normalised viability (CAL-85-1 [46]): 85.5%
normalised viability (CAL-120 [47]): 82.2%
normalised viability (MDA-MB-468 [48]): 101%
normalised viability (MDA-MB-453 [49]): 109%
normalised viability (HCC1937 [50]): 92.3%
normalised viability (SK-BR-3 [51]): 91.8%
normalised viability (BT-474 [52]): 113%
normalised viability (MDA-MB-436 [53]): 110%
normalised viability (CAL-51 [54]): 108%
